Experimental data as given in patent publication US20230220206A1, “REJUVENATING AGENTS FOR ASPHALT RECYCLING” (BASF SE, priority 2020, published 2023).
Where two headings read alike, the source gives them in different places.

Assays:
[1] = Softening point of rejuvenated polymer-modified bitumen; format: physicochemical; settings: Olexobit 45 + 5% compound
[2] = Softening point of rejuvenated RAP bitumen; format: physicochemical; settings: bitumen extracted from RAP + 5% compound
[3] = Softening point of rejuvenated aged bitumen; format: physicochemical; settings: aged bitumen 50/70 PCK Schwedt + 5% compound
[4] = bitumen 20/30 + 5% compound
[5] = Ageing index (RTFOT ageing) of rejuvenated polymer-modified bitumen; format: physicochemical; settings: Olexobit 45 + 5% compound; viscosity after ageing divided by viscosity before ageing
Description: (§1) Herewith, it will be shown that the positive effects of the here claimed rejuvenating agents can also be applied to PmB, in this case Olexobit 45. Olexobit 45 was therefore rejuvenated according to the procedure of Example 1.

[6] = BBR of rejuvenated polymer-modified bitumen; format: physicochemical; settings: Olexobit 45 + 5% compound
Procedure: (§2) Different bitumen samples were rejuvenated as in Example 1, and the BBR values S (flexural creep stiffness) and m […] were evaluated at −16° C. The results were compared to the not rejuvenated bitumen sample as well as to the bitumen rejuvenated with the benchmark RheoFalt® HP-AM (Comp. 1.3).

[7] = format: physicochemical; settings: Olexobit 45 + 5% compound
[8] = format: physicochemical; settings: bitumen extracted from RAP + 5% compound
[9] = Softening point of rejuvenated aged bitumen; format: physicochemical; settings: aged bitumen 50/70 BP + 5% compound
[10] = Loss tangent from DSR frequency sweep at 60° C.; format: physicochemical
Description: In addition, it could be shown that additives according to the present invention perform most of the times better than the common benchmarks according to the standard testing techniques for the low, mid and high temperature range. What cannot be extracted from these measurements however is an indication of the working mechanism.

[11] = MSCR test, percentage elastic recovery; format: physicochemical; settings: bitumen 20/30 + 5% compound
[12] = MSCR elastic recovery of rejuvenated polymer-modified bitumen; format: physicochemical; settings: Olexobit 45 + 5% compound
[13] = format: physicochemical; settings: aged bitumen 50/70 PCK Schwedt + 5% compound
[14] = MSCR elastic recovery of rejuvenated aged bitumen; format: physicochemical; settings: aged bitumen 50/70 PCK Schwedt + 5% compound
[15] = Force ductility of rejuvenated polymer-modified bitumen; format: physicochemical; settings: Olexobit 45 + 5% compound
Description: as §1

[16] = MSCR elastic recovery of rejuvenated aged bitumen; format: physicochemical; settings: aged bitumen 50/70 BP + 5% compound
[17] = Softening point ring & ball of rejuvenated bitumen; settings: bitumen 20/30 rejuvenated with 5% of the compound, 180° C., 30 minutes
[18] = Low temperature performance, bending beam rheometer (BBR) at −16° C.; format: physicochemical; settings: bitumen 20/30 + 5% compound
Procedure: as §2

[19] = format: physicochemical; settings: aged bitumen 50/70 BP + 5% compound
[20] = MSCR elastic recovery of rejuvenated RAP bitumen; format: physicochemical; settings: bitumen extracted from RAP + 5% compound

CC(C)CCCCCCOC(=O)C1CCCCC1C(=O)OCCCCCCC(C)C (stereo not drawn) [Hexamoll ® DINCH, diisononyl cyclohexane-1,2-dicarboxylate]
SP [° C.] [1]: 49.0 °C | SP [° C.] [2]: 59.0 °C | SP [° C.] [3]: 56.0 °C | η(135° C.) [mPas] [4]: 950 mPas | AI (ageing index) [5]: 2.1 | BBR S-value [MPa] [6]: 80 MPa | BBR m-value [6]: 0.43 | η(135° C.) [mPas] [7]: 700 mPas | η(135° C.) [mPas] [8]: 1,200 mPas | SP [° C.] [9]: 56.5 °C | tan δ ([10]; aged bitumen 50/70 BP + 5% compound, lowest frequency): 35 | tan δ ([10]; aged bitumen 50/70 PCK Schwedt + 5% compound, lowest frequency): 40 | tan δ ([10]; bitumen 20/30 + 5% compound, lowest frequency (0.01 rad/s)): 45 | tan δ ([10]; bitumen extracted from RAP + 5% compound, lowest frequency): 25 | MSCR % Rec. (0.1 kPa) ([11]; 0.1 kPa): 10% | MSCR % Rec. (1.6 kPa) ([11]; 1.6 kPa): 4% | MSCR % Rec. (3.2 kPa) ([11]; 3.2 kPa): 1% | MSCR % Rec. (0.1 kPa) ([12]; 0.1 kPa): 19% | MSCR % Rec. (1.6 kPa) ([12]; 1.6 kPa): 7% | MSCR % Rec. (3.2 kPa) ([12]; 3.2 kPa): 4% | η(135° C.) [mPas] [13]: 1,000 mPas | MSCR % Rec. (0.1 kPa) ([14]; 0.1 kPa): 11% | MSCR % Rec. (1.6 kPa) ([14]; 1.6 kPa): 7% | MSCR % Rec. (3.2 kPa) ([14]; 3.2 kPa): 3% | Force Ductility Fmax [N] [15]: 12 N | Force Ductility W [J/cm^2] [15]: 1.0 J/cm^2 | MSCR % Rec. (0.1 kPa) ([16]; 0.1 kPa): 14% | MSCR % Rec. (1.6 kPa) ([16]; 1.6 kPa): 10% | MSCR % Rec. (3.2 kPa) ([16]; 3.2 kPa): 5% | SP [° C.] (softening point) [17]: 52.0 °C | S-value [MPa] (flexural creep stiffness) [18]: 90 MPa | m-value [18]: 0.41 | η(135° C.) [mPas] [19]: 1,000 mPas | MSCR % Rec. (0.1 kPa) ([20]; 0.1 kPa): 16% | MSCR % Rec. (1.6 kPa) ([20]; 1.6 kPa): 12% | MSCR % Rec. (3.2 kPa) ([20]; 3.2 kPa): 7%
